Experimental findings from US20250197428A1, “INHIBITORS OF KIF18A AND USES THEREOF” (ACCENT THERAPEUTICS, INC., priority 2022, published 2025) are described below.

Read-outs that look alike come from different tables or passages of the source.

Assay [1] has as its system OVCAR-3 cells. Description: In vitro anti-proliferative activity assay in cancer cell line OVCAR-3 (CellTiter-Glo, 4- or 7-day). To be noted: Homo sapiens, read-out: OVCAR-3 cellular antiproliferation assay IC50. The class given is cell-based.
Assay [2] concerns the target KIF18A (Homo sapiens (Human), UniProt Q8NI77). In words: KIF18A Biochemical Assay (ATPase, ADP-Glo). (ADP-Glo turns the ADP formed in a reaction into a luminescent signal.)

KIF18A, sequence (Q8NI77 1-367): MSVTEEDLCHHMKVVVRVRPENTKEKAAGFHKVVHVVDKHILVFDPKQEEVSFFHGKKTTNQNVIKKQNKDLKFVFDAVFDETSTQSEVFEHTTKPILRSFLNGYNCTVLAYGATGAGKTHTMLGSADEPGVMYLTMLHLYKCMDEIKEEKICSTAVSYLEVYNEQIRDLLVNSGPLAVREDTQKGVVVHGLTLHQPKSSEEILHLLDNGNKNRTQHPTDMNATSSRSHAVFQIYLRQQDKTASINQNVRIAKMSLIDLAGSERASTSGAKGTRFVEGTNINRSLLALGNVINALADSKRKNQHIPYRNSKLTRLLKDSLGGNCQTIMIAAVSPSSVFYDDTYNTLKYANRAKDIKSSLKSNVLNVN
KIF18A, sequence (P02550 whole entry partner): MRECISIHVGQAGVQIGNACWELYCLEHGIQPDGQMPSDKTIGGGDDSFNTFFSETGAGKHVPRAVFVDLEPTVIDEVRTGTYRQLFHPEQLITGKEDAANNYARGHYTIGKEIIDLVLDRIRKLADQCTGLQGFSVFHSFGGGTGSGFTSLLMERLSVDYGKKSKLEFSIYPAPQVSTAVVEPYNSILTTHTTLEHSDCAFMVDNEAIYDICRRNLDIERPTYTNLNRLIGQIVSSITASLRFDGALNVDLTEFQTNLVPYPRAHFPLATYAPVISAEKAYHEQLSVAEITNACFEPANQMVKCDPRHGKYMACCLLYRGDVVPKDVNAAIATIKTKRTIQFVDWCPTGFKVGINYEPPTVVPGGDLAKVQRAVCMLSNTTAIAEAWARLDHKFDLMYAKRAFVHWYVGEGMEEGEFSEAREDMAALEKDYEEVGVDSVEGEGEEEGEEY
KIF18A, sequence (P02554 whole entry partner): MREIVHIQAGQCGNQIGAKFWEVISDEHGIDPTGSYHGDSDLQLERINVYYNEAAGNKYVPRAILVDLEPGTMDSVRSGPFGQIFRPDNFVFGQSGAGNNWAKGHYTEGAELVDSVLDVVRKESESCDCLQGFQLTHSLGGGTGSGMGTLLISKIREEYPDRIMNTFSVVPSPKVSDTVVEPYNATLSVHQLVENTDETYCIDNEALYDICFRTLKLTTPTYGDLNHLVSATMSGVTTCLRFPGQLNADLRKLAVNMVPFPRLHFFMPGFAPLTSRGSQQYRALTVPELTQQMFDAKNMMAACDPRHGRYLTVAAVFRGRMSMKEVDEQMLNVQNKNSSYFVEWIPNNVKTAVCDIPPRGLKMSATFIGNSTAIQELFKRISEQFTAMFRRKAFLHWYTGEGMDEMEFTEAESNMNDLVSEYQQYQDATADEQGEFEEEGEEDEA

As for `CO[C@@]12CCN(c3cc(NS(=O)(=O)CCO)ccc3C(=O)Nc3cc(C)nc(N4CCC(F)(F)CC4)n3)C[C@@H]1C2` [Example 82], the IC50 was 500 to 1000 nM in assay [1] (OVCAR-3, 168 h, 7-day assay) and less than 100 nM in assay [2].

On to `Cc1cc(NC(=O)c2ncc(NS(=O)(=O)CCO)cc2N2CC[Si](C)(C)CC2)nc(N2CCC(F)(F)CC2)n1` [Example 26], for which the IC50 in assay [1] (OVCAR-3, 96 h, 4-day assay) was 100 to 500 nM; in assay [2] it was less than 100 nM.

As to `C[C@]12CCN(c3ncccc3C(=O)Nc3cccc(S(=O)(=O)N4CCC(F)(F)CC4)c3)C[C@H]1C2` [Example 46], the IC50 in assay [1] (OVCAR-3, 96 h, 4-day assay) is more than 1000 nM.

In the case of `Cc1cc(NC(=O)c2ccc(NS(=O)(=O)CCO)cc2N2CC[Si](C)(C)CC2)nc(N2CCC(F)(F)CC2)c1F` [Example 133], the IC50 in assay [1] (OVCAR-3, 168 h, 7-day assay) is 100 to 500 nM; in assay [2] it was less than 100 nM.

As to `O=C(Nc1ccnc(C2CCC(F)(F)CC2)n1)c1ccc(NS(=O)(=O)CCO)cc1N1CC[C@@]2(C(F)F)C[C@H]2C1` [Example 76], the IC50 in assay [1] (OVCAR-3, 168 h, 7-day assay) is 100 to 500 nM; in assay [2] it was less than 100 nM.

In the case of `C[Si]1(C)CCN(c2cc(S(=O)(=O)CCO)ccc2C(=O)Nc2cccc(OC[C@H](O)C(F)(F)F)n2)CC1` [Example 130], the IC50 in assay [1] (OVCAR-3, 168 h, 7-day assay) was 100 to 500 nM; in assay [2], less than 100 nM.

As to `C[C@@]12CCN(c3ncccc3C(=O)Nc3cccc(S(=O)(=O)N4CCC(F)(F)CC4)c3)C[C@@H]1C2` [Example 47], the IC50 in assay [2] is more than 1000 nM.

For `Cc1cc(NC(=O)c2ncc(NS(=O)(=O)CCO)nc2N2CC[Si](C)(C)CC2)nc(N2CCC(F)(F)CC2)n1` [Example 105], the IC50 in assay [1] (OVCAR-3, 168 h, 7-day assay) is more than 1000 nM; in assay [2] it was more than 1000 nM.

In the case of `O=C(Nc1cccc(N2CCC(F)(F)CC2)n1)c1c(F)cc(NS(=O)(=O)CCO)cc1N1CC[C@]2(C(F)F)C[C@@H]2C1` [Example 83], the IC50 is 500 to 1000 nM in assay [1] (OVCAR-3, 168 h, 7-day assay) and less than 100 nM in assay [2].

For the compound `Cc1cc(NC(=O)c2ccc(NS(=O)(=O)CCO)cc2N2CC[C@@]3(CO)C[C@H]3C2)nc(N2CCC(F)(F)CC2)n1` [Example 39], the IC50 in assay [1] (OVCAR-3, 96 h, 4-day assay) was more than 1000 nM; in assay [2], 100 to 500 nM.

`CNCCS(=O)(=O)Nc1ccc(C(=O)Nc2cccc(N3CCC(F)(F)CC3)n2)c(N2CC[Si](C)(C)CC2)c1` [Example 101]: the IC50 in assay [1] (OVCAR-3, 168 h, 7-day assay) was 100 to 500 nM; in assay [2], less than 100 nM.

With `CC12CCN(c3ncccc3C(=O)Nc3cccc(S(=O)(=O)N4CCC(F)(F)CC4)c3)CC1C2` (stereo not drawn) [Example 45], in assay [1] (OVCAR-3, 96 h, 4-day assay), the IC50 is more than 1000 nM.

With `O=C(Nc1ccnc(N2CCC(F)(F)CC2)n1)c1c(F)cc(NS(=O)(=O)CCO)cc1N1CC[C@]2(C(F)F)C[C@@H]2C1` [Example 69], the IC50 in assay [1] (OVCAR-3, 168 h, 7-day assay) is more than 1000 nM; in assay [2], less than 100 nM.

Regarding `C[Si]1(C)CCN(c2cc(NS(=O)(=O)CCO)ccc2C(=O)Nc2cccc(C3(C(F)(F)F)N=N3)c2)CC1` [Example 87], the IC50 in assay [1] (OVCAR-3, 168 h, 7-day assay) was 100 to 500 nM; in assay [2] it was less than 100 nM.

For the compound `Cc1cc(NC(=O)c2ccc(NS(=O)(=O)CCO)cc2N2CCC3(CO)CC3C2)nc(N2CCC(F)(F)CC2)n1` (stereo not drawn) [Example 30, N-(2-(4,4-difluoropiperidin-1-yl)-6-methylpyrimidin-4-yl)-4-((2-hydroxyethyl)sulfonamido)-2-(6-(hydroxymethyl)-3-azabicyclo[4.1.0]heptan-3-yl)benzamide], the IC50 in assay [1] (OVCAR-3, 96 h, 4-day assay) is more than 1000 nM; in assay [2], 100 to 500 nM.

On to `C[Si]1(C)CCN(c2cc(NS(=O)(=O)CCO)ccc2C(=O)Nc2ccnc(S(=O)(=O)C3CCCC3)n2)CC1` [Example 89], for which the IC50 in assay [1] (OVCAR-3, 168 h, 7-day assay) lay within 100 to 500 nM.

With `Cc1cc(NC(=O)c2ccc(S(=O)(=O)NCCO)cc2N2CC[C@@]3(C)C[C@H]3C2)nc(N2CCC(F)(F)CC2)n1` [Example 53], the IC50 in assay [1] (OVCAR-3, 168 h, 7-day assay) is 100 to 500 nM; in assay [2], less than 100 nM.

In the case of `O=C(Nc1ccnc(N2CCC(F)(F)CC2)n1)c1ccc(NS(=O)(=O)CCO)cc1N1CC[C@@]2(C(F)F)C[C@H]2C1` [Example 61], the IC50 in assay [1] (OVCAR-3, 168 h, 7-day assay) was 100 to 500 nM; in assay [2], less than 100 nM.

For the compound `O=C(Nc1cccc(N2CCC(F)(F)CC2)n1)c1ccc(NS(=O)(=O)CCO)cc1N1CC[C@]2(C(F)F)C[C@@H]2C1` [Example 64], the IC50 in assay [1] (OVCAR-3, 168 h, 7-day assay) was less than 100 nM; in assay [2] it was less than 100 nM.

On to `C[Si]1(C)CCN(c2cc(NS(=O)(=O)CCO)c(F)cc2NC(=O)c2cccc(N3CCC(F)(F)CC3)n2)CC1` [Example 95], for which the IC50 in assay [1] (OVCAR-3, 96 h, 4-day assay) was less than 100 nM.

As for `Cc1cc(NC(=O)c2ccc(NS(=O)(=O)CCO)cc2N2CC[C@@]3(C(F)F)C[C@H]3C2)nc(OC[C@@H](O)C(F)(F)F)n1` [Example 74], the IC50 in assay [1] (OVCAR-3, 168 h, 7-day assay) is more than 1000 nM; in assay [2] it was more than 1000 nM.

Regarding `Cc1cc(NC(=O)c2c(F)cc(NS(=O)(=O)CCO)cc2N2CC[C@]3(C(F)F)C[C@@H]3C2)nc(N2CCC(F)(F)CC2)n1` [Example 71], the IC50 in assay [1] (OVCAR-3, 168 h, 7-day assay) was more than 1000 nM; in assay [2], 100 to 500 nM.

Consider `Cc1cc(NC(=O)c2ccc(S(=O)(=O)NCCO)cc2N2CC[C@]3(C)C[C@@H]3C2)nc(N2CCC(F)(F)CC2)n1` [Example 52], for which the IC50 is 100 to 500 nM in assay [1] (OVCAR-3, 168 h, 7-day assay) and less than 100 nM in assay [2].

In the case of `C[Si]1(C)CCN(c2ncccc2C(=O)Nc2cccc(S(=O)(=O)N3CCC(F)(F)CC3)c2)C1` [Example 93], the IC50 in assay [1] (OVCAR-3, 168 h, 7-day assay) is more than 1000 nM.

Take `CC(C)(CO)Nc1ccc(C(=O)Nc2cccc(S(=O)(=O)C3CCCC3)c2)c(N2CC[Si](C)(C)CC2)n1` [Example 97]: the IC50 in assay [1] (OVCAR-3, 168 h, 7-day assay) is more than 1000 nM; in assay [2] it was more than 1000 nM.

For the compound `C[Si]1(C)CCN(c2cc(S(=O)(=O)NCCO)ccc2C(=O)Nc2cccc(OC[C@H](O)C(F)(F)F)n2)CC1` [Example 132], the IC50 in assay [1] (OVCAR-3, 168 h, 7-day assay) was less than 100 nM; in assay [2], less than 100 nM.

For `C[Si]1(C)CCN(c2cc(NS(=O)(=O)CCO)cc(F)c2C(=O)Nc2cccc(OC[C@H](O)C(F)(F)F)n2)CC1` [Example 124], the IC50 in assay [1] (OVCAR-3, 168 h, 7-day assay) was 100 to 500 nM; in assay [2], less than 100 nM.

Regarding `Cc1cc(NC(=O)c2ccc(NS(=O)(=O)CCO)cc2N2CC[C@@]3(C)C[C@H]3C2)nc(N2CCC(F)(F)CC2)n1` [Example 63], in assay [1] (OVCAR-3, 168 h, 7-day assay), the IC50 is less than 100 nM.

In the case of `Cc1cc(NC(=O)c2ccc(NS(=O)(=O)CCO)cc2N2CC[C@]3(C)C[C@@H]3C2)nc(N2CCC(F)(F)CC2)n1` [Example 62], in assay [1] (OVCAR-3, 168 h, 7-day assay), the IC50 is less than 100 nM.

In the case of `C[C@H]1CN(c2nccc(C(=O)Nc3ccc(NS(=O)(=O)CCO)cc3N3CC[Si](C)(C)CC3)n2)CCO1` [Example 91], the IC50 in assay [1] (OVCAR-3, 168 h, 7-day assay) lay within 100 to 500 nM.

Compound `O=C(Nc1ccnc(N2CCC(F)(F)CC2)n1)c1ccc2c(cnn2CCO)c1N1CCC2(CC1)CC2` [Example 25] returned an IC50 in assay [2] of more than 1000 nM.

Compound `O=C(Nc1cccc(S(=O)(=O)N2CCC(F)(F)CC2)c1)c1cccnc1N1CCC2CC2C1` (stereo not drawn) [Example 44] had an IC50 in assay [2] of more than 1000 nM.

As for `Cc1cc(NC(=O)c2c(F)cc(NS(=O)(=O)CCO)cc2N2CC[C@@]3(C)C[C@H]3C2)nc(N2CCC(F)(F)CC2)n1` (single isomer, unassigned) [Example 31b], in assay [1] (OVCAR-3, 168 h, 7-day assay), the IC50 lay in the range of 100 to 500 nM.

On to `CC[Si]1(CC)CCN(c2ncccc2C(=O)Nc2cccc(S(=O)(=O)N3CCC(F)(F)CC3)c2)CC1` [Example 92], for which the IC50 in assay [1] (OVCAR-3, 168 h, 7-day assay) was more than 1000 nM.

For `Cc1cc(NC(=O)c2c(F)cc(NS(=O)(=O)CCO)cc2N2CC[C@]3(C)C[C@@H]3C2)nc(N2CCC(F)(F)CC2)n1` (single isomer, unassigned) [Example 31a], in assay [1] (OVCAR-3, 168 h, 7-day assay), the IC50 was 100 to 500 nM.

As for `CC(C)(C)NS(=O)(=O)c1cccc(NC(=O)c2ccc(S(=O)(=O)C3(C)COC3)cc2N2CC[Si](C)(C)CC2)c1` [Example 24], the IC50 in assay [1] (OVCAR-3, 96 h, 4-day assay) fell in the range of 100 to 500 nM.
